Measurements reported in paper PMC10755736, “Modulating Liquid–Liquid Phase Separation of Nck Adaptor Protein against Enteropathogenic Escherichia coli Infection” (ACS Central Science, 2023).
Non-standard residues stand in square brackets, D forms with d. Residues, ends and D or L forms follow the SMILES beside them. *: point of attachment. Biotin = O=C1N[C@H]2[C@H](CS[C@H]2CCCCC(=O)*)N1; Benzoyl(3-SO2F) = O=C(c1cccc(S(=O)(=O)F)c1)*; pY = N[C@@H](Cc1ccc(OP(=O)(O)O)cc1)C(=O)O; Dap = NC[C@H](N)C(=O)O

How the values were obtained:
[1] = system: EPEC infection of Caco-2 cells; assay: EPEC infection assay of Caco-2 cells (CFU counts); assay type: cell-based, enteropathogenic Escherichia coli; conditions: with L17E-mediated delivery, L17E 40 μM
Method: Lastly, to examine whether pretreatment of Caco-2 cells with L17E/p1 could prevent EPEC infection, we first established a bacterial infection assay (Figure 7a). Caco-2 cells were pretreated with L17E/p1 for 2 h. After excess peptides were removed, Caco-2 cells were then infected with EPEC at different multiplicity of infection (MOI) values (MOI is commonly defined as the ratio of infectious bacteria to cells in a culture) for 3 h, and extra bacterial cells were removed from the culture. Next, gentamicin was added to the cell culture to remove EPEC that are merely attached to the surface of Caco-2 cells, leaving only engulfed EPEC inside Caco2 cells to be counted (gentamicin treatment will not kill intracellular bacteria due to its cellular impermeability). After gentamicin was washed away, cells were lysed to release EPEC cells inside, and the cell lysates were diluted to count the number of EPEC cells as colony-forming units (cfu) on agar plates.
Caco-2 cells were seeded in a 24-well plate at a density of 1×10^4 cells for 24 h and pretreated with peptide complexes for 2 h. After washing with DMEM, cells were infected with EPEC at selected MOI values for 3 h at 37 ℃. Cells were then treated with gentamicin ([…]) for 2 h and lysed with 1% […]
Triton X-100 for 15 min. […]
The sample was loaded onto 12% SDS/PAGE glycerol gel and then transferred onto a PVDF membrane using Bio-Rad […]. The membrane was blocked and incubated with a rabbit anti-Nck antibody (Abcam, Hong Kong) at 4 °C overnight, followed by a n anti -rabbit HRP -labeled secondary antibody (Abcam, Hong Kong).
SPSS 23.0 statistical software was used to process experimental data. The differences between mean ± SEM of three independent experiments were assessed by Student's t -test.

Nck = target: T1, Nck (Homo sapiens, UniProt P16333); assay: Crosslinking of peptides with recombinant Nck in vitro (SDS-PAGE, Western blotting); assay type: binding; conditions: peptide:Nck 5:1, 37 °C, PBS, 1 h; SDS-PAGE and anti-biotin Western blotting
T1 construct: GST (followed by PreScission/HRV 3C site) (N, cleaved yes); made in house; host or cells: E. coli BL21(DE3)
From the text: Although peptide Y474 can block Nck-mediated LLPS, the requirement of a high concentration of the blocker peptide is hard to achieve inside the cell. […] The side chains of the Nck lysine residues are pointing toward the residues at pY+1 and pY+2 positions with distances of only 4 to 6 Å. This unique feature gives us an opportunity to design covalent blockers for Nck-SH2 by installing electrophiles at the pY+1 or pY+2 positions to enable a proximal conjugation reaction with one of the lysine residues. Covalent blockage through the characteristic lysine residues will maximize the specificity of the inhibitor toward Nck-SH2. As sulfonyl fluoride has been reported to react with proteinaceous nucleophiles such as lysine, histidine, or cysteine,[34] we installed a sulfonyl fluoride group on the side chain of diaminopropionic acid, giving an unnatural amino acid X1 at different positions such as pY+1 (Asp6) and pY+3 (Val8) of peptide EEHIpYDEVAAD. Besides the amino acid X1, we also included α-chloroacetyl-carrying amino acids X2 and X3, which may also react with proteineous nucleophiles. Electrophile-containing reactive peptides p1 to p11 were synthesized with a biotin tag at the N-termini (Figure 4b). After the reactive peptides were incubated with recombinant Nck protein at a 5:1 ratio at 37 °C in PBS for 1 h, the formation of covalently linked Nck–peptide conjugates could be observed, shown as new protein bands with molecular weights higher than that of Nck based on denatured SDS-PAGE and Western blotting analysis against biotin (Figure 4c). […] At 37 °C in PBS buffer, the 1:1 reaction efficiency reached 50% in 2 min (Figure S4 in the Supporting Information).
Figure 4 Covalently reactive peptides designed based on a Tir peptide. (a) Crystal structure of Nck-SH2 in complex with a peptide EEHIpYDEVAAD from EPEC protein Tir (PDB: 2CI9). (b) List of synthetic reactive peptides. (c) Unnatural amino acids in the peptides. (d) SDS-PAGE (top) and Western blotting (bottom) analyses showing covalent conjugation of the peptides with Nck. […]

Nck-SH2 = conditions: cited from earlier work
From the text: Phosphorylated Tir is known to bind to Nck-SH2. […] Also, the sequence of nephrin contains three Tyr-containing sequences that are similar to those of the Tir peptide: HLYDEV, PLYDEV, and GIYDQV (the potential phosphorylation sites are underscored), with a hydrophobic residue at the pY-1 site, and negatively charged residues at pY+1 and/or pY+2 (Figure 2c). Therefore, we reason that phosphorylation at these Tyr turns nephrin into p-nephrin, a ...

Compound: CC[C@H](C)[C@H](NC(=O)[C@H](Cc1c[nH]cn1)NC(=O)[C@H](CCC(=O)O)NC(=O)[C@H](CCC(=O)O)NC(=O)[C@@H]1CCCN1)C(=O)N[C@@H](Cc1ccc(OP(=O)(O)O)cc1)C(=O)N[C@@H](CC(=O)O)C(=O)N[C@@H](CCC(=O)O)C(=O)N[C@H](C(=O)N[C@@H](C)C(=O)N[C@@H](C)C(=O)N[C@@H](CC(=O)O)C(=O)N1CCC[C@H]1C(=O)NCC(N)=O)C(C)C [Y474]
- blockage of EPEC invasion/infection of Caco-2 cells [1]: can block EPEC invasion to Caco-2 cells

Compound: CC[C@H](C)[C@H](NC(=O)[C@H](Cc1c[nH]cn1)NC(=O)[C@H](CCC(=O)O)NC(=O)[C@H](CCC(=O)O)NC(=O)CCCC[C@@H]1SC[C@@H]2NC(=O)N[C@@H]21)C(=O)N[C@@H](Cc1ccc(OP(=O)(O)O)cc1)C(=O)N[C@@H](CC(=O)O)C(=O)N[C@@H](CCC(=O)O)C(=O)N[C@H](C(=O)N[C@@H](C)C(=O)N[C@@H](C)C(=O)N[C@@H](CNC(=O)c1cccc(S(=O)(=O)F)c1)C(N)=O)C(C)C [p7] (Biotin-EEHI[pY]DEVAA[Dap](Benzoyl(3-SO2F))-NH2)
- reactivity with Nck (Nck): noticeable reactivity

Compound: EEHIpYDEVAADP [12-residue pY-containing Tir peptide]
- binding to Nck-SH2 (Nck-SH2): strong binder to Nck-SH2
